Here are results for four compounds from patent US10738068B2, “Organic/inorganic hybrid nanoparticulates made from iron carboxylates” (CENTRE NATIONAL DE LA RECHERCHE SCIENTIFIQUE—CNRS, priority 2007, dated 2020).

The conditions of data set [1]: cited from earlier work.
Data set [2] is described as follows: Solubility of busulfan in various solvents. In kind it is physicochemical. The source says:
The solvents chosen for the impregnation are those in which busulfan has appreciable solubility (acetone, acetonitrile, chloroform, dichloromethane, dimethyl carbonate) (Table 18).

Molecules are shown by their SMILES. Values after ≈ are worked out from the molar mass of the structure shown. Like-named read-outs stand apart in the source and are kept apart here.

Turning to `NC(N)=O` [Urea], the Solubility in water in data set [1] (20° C.) was 1080 mg/mL (≈ 18000 mM).
Regarding `CS(=O)(=O)OCCCCOS(C)(=O)=O` [busulfan, 1,4-butanediol dimethylsulfonate], the Busulfan solubility in data set [2] (Chloroform) is 8 mg/mL; in data set [2] (Ethanol) it was <<<4 mg/ml; in data set [2] (Ether), <<<4 mg/ml; in data set [2] (Hexane), <<<4 mg/ml; in data set [2] (Methanol) it was <<<4 mg/ml; in data set [2] (Tetrahydrofuran), approximately 5 mg/mL. In data set [2] (Toluene), this compound gave a Busulfan solubility of approximately 4 mg/mL.
Consider `Nc1ccn([C@@H]2O[C@H](CO)[C@@H](O)C2(F)F)c(=O)n1` [Gemcitabine], for which the “Solubility in water” value in data set [1] was “water soluble”.
For the compound `CC(=O)O[C@H]1C(=O)[C@@]2(C)[C@H]([C@H](OC(=O)c3ccccc3)[C@]3(O)C[C@H](OC(=O)[C@H](O)[C@@H](NC(=O)c4ccccc4)c4ccccc4)C(C)=C1C3(C)C)[C@]1(OC(C)=O)CO[C@@H]1C[C@@H]2O` [Paclitaxel], the “Solubility in ethanol and in DMSO” value in data set [1] (ethanol, DMSO) is on record as “about 50 g/L”.
